Results as given in ChEMBL document CHEMBL4359818, “Targeting dihydrofolate reductase: Design, synthesis and biological evaluation of novel 6-substituted pyrrolo[2,3-d]pyrimidines as nonclassical antifolates and as potential antitumor agents” (Eur J Med Chem, 2019).
Activity calls are given as the source filed them. No cut-off for these calls is given here.

Legend:
[1] = Selectivity index, ratio of IC50 for HUVEC to IC50 for human KB cells; type: toxicity; conditions: HUVEC and KB cells, read-out: Ratio IC50
Dihydrofolate reductase = target: T1, Dihydrofolate reductase (Homo sapiens, UniProt P00374); test: Inhibition of recombinant human DHFR using dihydrofolic acid as substrate in presence of NADPH after 15 mins by microplate reader analysis
T1 sequence (P00374 whole entry): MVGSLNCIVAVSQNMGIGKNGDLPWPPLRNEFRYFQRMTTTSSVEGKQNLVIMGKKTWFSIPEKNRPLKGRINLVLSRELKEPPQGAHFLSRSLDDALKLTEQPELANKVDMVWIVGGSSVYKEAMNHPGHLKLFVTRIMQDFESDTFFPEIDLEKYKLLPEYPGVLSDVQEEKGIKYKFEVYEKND

SW-620 [2] = test: Antiproliferative activity against human SW620 cells assessed as reduction in cell viability after 72 hrs by MTT assay; type: functional, cell-based; conditions: SW-620, 72 h
KB [3] = test: Antiproliferative activity against human KB cells assessed as reduction in cell viability after 72 hrs by MTT assay; type: functional, cell-based
KB [4] = test: Cell cycle arrest in human KB cells assessed as accumulation at G2 phase at 10 uM after 96 hrs by RNase-1 A/propidium iodide staining-based flow cytometric analysis (reference value: 9.06%); type: functional
A549 [5] = test: cells; conditions: Homo sapiens, A549, 72 h
Description: Antiproliferative activity against human A549 cells assessed as reduction in cell viability after 72 hrs by MTT assay

KB [6] = test: Cell cycle arrest in human KB cells assessed as accumulation at G1 phase at 10 uM after 96 hrs by RNase-1 A/propidium iodide staining-based flow cytometric analysis (reference value: 42.69%); type: functional
KB [7] = test: Antiproliferative activity against human KB cells at 0.01 to 1 uM in presence of thymidine; type: functional, cell-based
KB [8] = test: Inhibition of colony formation in human KB cells at 100 nM after 10 to 14 days by methylene blue staining based assay; type: functional, cell-based
KB [9] = test: Antiproliferative activity against human KB cells at 0.01 to 1 uM in presence of adenosine; type: functional, cell-based
KB [10] = test: Antiproliferative activity against human KB cells at 0.01 to 1 uM in presence of AICA; type: functional, cell-based
KB [11] = test: Cell cycle arrest in human KB cells assessed as accumulation at S phase at 10 uM after 96 hrs by RNase-1 A/propidium iodide staining-based flow cytometric analysis (reference value: 48.26%); type: functional
HUVEC = test: Cytotoxicity against HUVEC assessed as reduction in cell viability after 72 hrs by MTT assay; type: cell-based; conditions: Homo sapiens
A549 [12] = test: Potency index, ratio of IC50 for pemetrexed to IC50 for test compound for antiproliferative activity against human A549 cells after 72 hrs by MTT assay; type: functional
KB [13] = test: Potency index, ratio of IC50 for pemetrexed to IC50 for test compound for antiproliferative activity against human KB cells after 72 hrs by MTT assay; type: functional
SW-620 [14] = test: Potency index, ratio of IC50 for pemetrexed to IC50 for test compound for antiproliferative activity against human SW620 cells after 72 hrs by MTT assay; type: functional
KB [15] = test: Inhibition of colony formation in human KB cells at 100 nM after 10 to 14 days by methylene blue staining based assay relative to untreated control; type: functional
A549 [16] = test: Potency index, ratio of IC50 for methotrexate to IC50 for test compound for antiproliferative activity against human A549 cells after 72 hrs by MTT assay; type: functional
[17] = target: T2, Dihydrofolate reductase (Homo sapiens) (UniProt P00374); test: Potency index, ratio of IC50 for methotrexate to test compound IC50 for inhibition of recombinant human DHFR
T2 sequence (whole entry): T1 sequence (P00374 whole entry)

KB [18] = conditions: Homo sapiens, 10 nM
Description: Inhibition of colony formation in human KB cells at 10 nM after 10 to 14 days by methylene blue staining based assay

KB [19] = test: Antiproliferative activity against human KB cells in presence of thymidine; type: functional, cell-based
KB [20] = test: Antiproliferative activity against human KB cells in presence of adenosine; type: functional, cell-based
KB [21] = test: Antiproliferative activity against human KB cells in presence of AICA and thymidine; type: functional, cell-based
KB [22] = test: Antiproliferative activity against human KB cells in presence of AICA; type: functional, cell-based

SMILES | IC50 (Dihydrofolate reductase) | IC50 (SW-620 [2]) | IC50 (KB [3]) | Activity (KB [4]) | IC50 (A549 [5]) | Activity (KB [6]) | inhibition (KB [8]) | Activity (KB [11]) | IC50 (HUVEC) | other results
Nc1nc2[nH]c(CCNC(=O)c3ccc(C(=O)NCc4ccccn4)cc3)cc2c(=O)[nH]1 | 0.0293 µM | 0.0152 µM | 0.023 µM | 9.33% | 0.0189 µM | 65.92% | Active | 24.75% | 5.93 µM | selectivity ratio [1]: 257; Activity (KB [7]): Active; Activity (KB [9]): Active; Activity (KB [10]): Active
Nc1nc2[nH]c(CCNC(=O)c3ccc(C(=O)NCc4ccncc4)cc3)cc2c(=O)[nH]1 | 0.049 µM | 0.015 µM | 0.0102 µM | 9.66% | 0.0121 µM | 56.59% |  | 33.74% | 8.83 µM | selectivity ratio [1]: 867; Ratio IC50 (A549 [12]): 104; Ratio IC50 (KB [13]): 7; Ratio IC50 (SW-620 [14]): 7; inhibition at 0.1 µM (KB [15]): 80%; Activity (KB [7]): Active; Ratio IC50 (A549 [16]): 81; Activity (KB [9]): Active; Activity (KB [10]): Active
Nc1nc2[nH]c(CCNC(=O)c3ccccc3C(=O)NCc3ccccn3)cc2c(=O)[nH]1 | ≥ 1 µM | ≥ 1 µM | 0.0905 µM |  | ≥ 1 µM |  | Active |  |  | 
Nc1nc2[nH]c(CCNC(=O)c3ccccc3C(=O)NCc3cccnc3)cc2c(=O)[nH]1 | ≥ 1 µM | ≥ 1 µM | 0.0565 µM |  | ≥ 1 µM |  | Active |  |  | 
Nc1nc2[nH]c(CCNC(=O)c3cccc(C(=O)NCc4ccccn4)c3)cc2c(=O)[nH]1 | 0.00928 µM | ≥ 1 µM | 0.102 µM |  | ≥ 1 µM |  | Active |  |  | Ratio IC50 [17]: 2.6
Nc1nc2[nH]c(CCNC(=O)c3cccc(C(=O)NCc4cccnc4)c3)cc2c(=O)[nH]1 | 0.0534 µM | 0.153 µM | 0.0888 µM |  | ≥ 1 µM |  | Active |  |  | 
CN(Cc1cnc2nc(N)nc(N)c2n1)c1ccc(C(=O)N[C@@H](CCC(=O)O)C(=O)O)cc1 [METHOTREXATE] |  | 0.0131 µM |  |  |  |  |  |  | 6.13 µM | inhibition (KB [18]): Active
Nc1nc2[nH]c(CCNC(=O)c3ccccc3C(=O)NCc3ccncc3)cc2c(=O)[nH]1 | ≥ 1 µM | ≥ 1 µM | 0.0899 µM |  | ≥ 1 µM |  | Active |  |  | 
Nc1nc2[nH]c(CCNC(=O)c3ccc(C(=O)NCc4cccnc4)cc3)cc2c(=O)[nH]1 | 0.0379 µM | 0.0131 µM | 0.0112 µM | 6.26% | 0.0124 µM | 38.38% | Active | 55.36% | 2.97 µM | selectivity ratio [1]: 265; Activity (KB [7]): Active; Activity (KB [9]): Active; Activity (KB [10]): Active
Nc1nc2[nH]cc(CCc3ccc(C(=O)N[C@@H](CCC(=O)O)C(=O)O)cc3)c2c(=O)[nH]1 [PEMETREXED] |  | 0.0802 µM |  | 0% |  | 72.11% | Active | 27.89% | 1.73 µM | Activity (KB [19]): inactive; Activity (KB [20]): inactive; Activity (KB [21]): inactive; Activity (KB [22]): inactive
Nc1nc2[nH]c(CCNC(=O)c3cccc(C(=O)NCc4ccncc4)c3)cc2c(=O)[nH]1 | 0.0659 µM | 0.0602 µM | 0.025 µM |  | ≥ 1 µM |  | Active |  |  | 
